Source: patent US20110293593A1, “SIVA 2 STABILIZATION” (YEDA RESEARCH AND DEVELOPMENT CO., LTD., priority 2008, published 2011)
Peptide text beside a SMILES is read from it. * marks the point of attachment. Cbz = O=C(OCc1ccccc1)*

Assays:
SIVA2 [1] = experiment: SIVA2 protein level in PBMCs, western blotting with anti-SIVA antibody; format: cell-based, human; conditions: for SIVA2 levels in activated PBMCs: PHA-activated PBMCs, CPT 10 μM, CIS 50 μM for 18 h, MG132 last 4 h; for SIVA2 expression: resting PBMCs, ligands for 8 h
Method: For each cell line, cellular protein (30 μg) was resolved by 13.5% SDS-PAGE and probed with anti-SIVA antibody. The two lanes at the right show SIVA1 and SIVA2 overexpressed in HEK-293T cells (for each protein, 2 μg cDNA/well in 6-well plates). […] Cells (2×10^6) were treated with the indicated ligands for 8 h and the cell lysates were analyzed by western blotting. […] The cells were stimulated with PHA (1 μg/ml) for 48 h, washed twice with phosphate-buffered saline, and incubated for an additional period of 18 h without PHA. Ligands and genotoxic agents (camptothecin (CPT) 10 μM and cisplatin (CIS) 50 μM) were then applied for 18 h. MG132 was applied for the last 4 h of treatment. Except where otherwise indicated, MG132 was applied in this study at a concentration of […] denotes a non-specific band serving as loading control. […] PBMCs were activated as in FIG. 1d. Ligands were applied to the indicated cell types for 18 h. Semi-quantitative RT-PCR for SIVA message was performed as described in Methods. GAPDH was used as a basis for normalization. […] SIVA2 or SIVA1 plasmids (0.5 μg) were transfected, and 18 h later ligands were applied for 8 h. Total-cell lysates were analyzed by western blotting using anti-SIVA antibody. […] EcR-293-CD27-SIVA2 cells (see Methods) were treated with ponasterone and CD70 as indicated. Total-cell lysates were analyzed by western blotting using LDH as the loading control (bottom panel). […] HEK-293T cells were transfected with FLAG-SIVA2 and analyzed 24 h after transfection. MG132 was applied for the last 4 h of treatment. TCL, total cell lysate. […] Top: HepG2 cells were treated with CPT for 18 h. When indicated, they were transfected with pSUPER SIVA 30 h prior to CPT application. Cells lysates were analyzed by western blotting using anti-SIVA antibody. Middle: HepG2 cells were exposed to UVC (20 J/m^2) and levels of SIVA proteins were determined after 18 h of treatment. […] Bottom: HEK-293T cells were transfected with 0.5 μg of FLAG-SIVA2. CPT and CD40L were applied, 8 h after transfection, for a further 18 h.
Cells. Peripheral-blood mononuclear cells (PBMCs) were isolated from buffy-coat samples and cultured as described (Ramakrishnan et al., 2004). Ecdysone-inducible EcR-293-CD27 cell lines expressing SIVA2 (EcR-293-CD27-SIVA2) or SIVA1 (EcR-293-CD27-SIVA1) and EcR-293-CD40 were generated by transfection using the calcium phosphate method according to the instructions of the manufacturer (Invitrogen). All adherent cells—HEK-293T, EcR-293 (Invitrogen), HeLa, HeLa T-REx (Invitrogen), and HepG2—were cultured in Dulbecco's modified Eagle's medium. Both culture media were supplemented with 10% fetal calf serum, 100 U/ml pencillin, and 100 μg/ml streptomycin. The human lymphoblastoid lines Ramos (Human Burkitt's lymphoma cell line) and BJAB (B-lymphoblastoma cell line) were cultured in RPMI medium. Ecdysone-inducible EcR293-CD27 and EcR293-CD40 cell lines were generated by their stable transfection with cDNAs for human CD27 and CD40, respectively. EcR293-CD27 cell lines expressing SIVA2 (EcR293-CD27-SIVA2) or SIVA1 (EcR293-CD27-SIVA1) were generated by transfection using the calcium phosphate method, and myc NIK and myc NIK (K670A) were later introduced into these cells by retroviral transduction and selection with 1 μg/ml puromycin. Ramos cells constitutively expressing myc-NIK were generated by retroviral transduction, followed by selection with 1 μg/ml puromycin. […]

SIVA2 [2] = experiment: SIVA2 level/stabilization in transfected HEK-293T and EcR-293 cells, western blotting; format: cell-based, human
Method: (A) Expression of SIVA1 and SIVA2 in various cell lines. For each cell line, cellular protein (30 μg) was resolved by 13.5% SDS-PAGE and probed with anti-SIVA antibody. The two lanes at the right show SIVA1 and SIVA2 overexpressed in HEK-293T cells (for each protein, 2 μg cDNA/well in 6-well plates). (B) Several SIVA isoforms are expressed in PBMCs. […] (C) Ligand activation increases the amount of SIVA2 in resting PBMCs. Cells (2×10^6) were treated with the indicated ligands for 8 h and the cell lysates were analyzed by western blotting. […] The cells were stimulated with PHA (1 μg/ml) for 48 h, washed twice with phosphate-buffered saline, and incubated for an additional period of 18 h without PHA. Ligands and genotoxic agents (camptothecin (CPT) 10 μM and cisplatin (CIS) 50 μM) were then applied for 18 h. MG132 was applied for the last 4 h of treatment. Except where otherwise indicated, MG132 was applied in this study at a concentration of […] denotes a non-specific band serving as loading control. […] PBMCs were activated as in FIG. 1d. Ligands were applied to the indicated cell types for 18 h. Semi-quantitative RT-PCR for SIVA message was performed as described in Methods. GAPDH was used as a basis for normalization. […] SIVA2 or SIVA1 plasmids (0.5 μg) were transfected, and 18 h later ligands were applied for 8 h. Total-cell lysates were analyzed by western blotting using anti-SIVA antibody. TNF-induced SIVA2 stabilization was assessed in EcR-293-CD27 cells. (G) Inducibly expressed SIVA2 is stabilized by CD70. EcR-293-CD27-SIVA2 cells (see Methods) were treated with ponasterone and CD70 as indicated. Total-cell lysates were analyzed by western blotting using LDH as the loading control (bottom panel). […] HEK-293T cells were transfected with FLAG-SIVA2 and analyzed 24 h after transfection. MG132 was applied for the last 4 h of treatment. TCL, total cell lysate. (I) Differential effects of genotoxic agents on the expression of SIVA1 and SIVA2. Top: HepG2 cells were treated with CPT for 18 h. When indicated, they were transfected with pSUPER SIVA 30 h prior to CPT application. Cells lysates were analyzed by western blotting using anti-SIVA antibody. Middle: HepG2 cells were exposed to UVC (20 J/m^2) and levels of SIVA proteins were determined after 18 h of treatment. […] Bottom: HEK-293T cells were transfected with 0.5 μg of FLAG-SIVA2. CPT and CD40L were applied, 8 h after transfection, for a further 18 h.
HEK-293T cells cotransfected with NIK and SIVA2 were metabolically labeled with azido-GlcNAc, in-vitro biotinylated, and immunoprecipitated. The biotin-labeled GlcNAc moieties in SIVA2 were detected with streptavidin horseradish peroxidase (HRP). (B) SIVA binds to wheatgerm-agglutinin. The plasmids for SIVA2, alone or together with NIK or TRAF2, were transiently expressed in HEK-293T cells. Lactacystin was applied for the last 6 h of the 24-h treatment period. Lysates were analyzed for expression (right panel) and WGA binding (left panel) of SIVA2. N-acetyl-D-glucosamine (0.5 M) was added as a competitor for WGA binding. […] FLAG-SIVA2 was cotransfected with myc-NIK into HEK-293T cells and immunoprecipitated with anti-FLAG-M2 beads. The immunoprecipitated beads were boiled with 1% SDS and the eluted proteins were treated with […] hexosaminidase as described (Whelan, 2006). The samples were collected after treatment for 4, 8, and 20 h, diluted with WGA binding buffer, and lectin binding was assayed as described in Methods. Immunoprecipitation of the protein with anti-FLAG-M2 beads after treatment for 8 h as described above, followed by western analysis, confirmed that despite having lost the ability to bind to WGA the protein remained intact. ‘Sup’, SIVA protein remaining unbound after the reaction. […] The plasmids were transiently expressed in HEK-293T cells. DON (50 μM) was applied for the last 16 h and MG132 for the last 6 h of the 28-h treatment period. […] The experiment was performed as in (D). […]

SIVA1 = SIVA1 protein level in PBMCs, western blotting with anti-SIVA antibody; format: cell-based, human; conditions: resting PBMCs, ligands for 8 h
Method: For each cell line, cellular protein (30 μg) was resolved by 13.5% SDS-PAGE and probed with anti-SIVA antibody. The two lanes at the right show SIVA1 and SIVA2 overexpressed in HEK-293T cells (for each protein, 2 μg cDNA/well in 6-well plates). […] Cells (2×10^6) were treated with the indicated ligands for 8 h and the cell lysates were analyzed by western blotting. […] The cells were stimulated with PHA (1 μg/ml) for 48 h, washed twice with phosphate-buffered saline, and incubated for an additional period of 18 h without PHA. Ligands and genotoxic agents (camptothecin (CPT) 10 μM and cisplatin (CIS) 50 μM) were then applied for 18 h. MG132 was applied for the last 4 h of treatment. Except where otherwise indicated, MG132 was applied in this study at a concentration of […] denotes a non-specific band serving as loading control. […] Semi-quantitative RT-PCR for SIVA message was performed as described in Methods. […] Total-cell lysates were analyzed by western blotting using anti-SIVA antibody. […] Total-cell lysates were analyzed by western blotting using LDH as the loading control (bottom panel). […] HEK-293T cells were transfected with FLAG-SIVA2 and analyzed 24 h after transfection. […] Cells lysates were analyzed by western blotting using anti-SIVA antibody. Middle: HepG2 cells were exposed to UVC (20 J/m^2) and levels of SIVA proteins were determined after 18 h of treatment. […]

cIAP1 [3] = target: T1, cIAP1 (human, UniProt Q13490 1-618); experiment: immunoprecipitation of endogenous cIAP1 from transfected HEK293T cells (FIG. 6D right panel)
T1 construct: Also used for general sentences that say only 'cIAP1'; also called endogenous cIAP1
Method: (§1) Left panel: Binding in vitro. […] Right and bottom panels depict binding in transfected HEK293T cells. […] After 28 h the endogenous cIAP1 was immunoprecipitated. MG132 was applied for the last 6 h of incubation. […] After 28 h the transfected proteins were immunoprecipitated and probed for co-precipitated endogenous cIAP1. MG132 was applied for the last 6 h of incubation. […] N/A, not analyzed. The asterisk denotes assessment in the yeast two-hybrid test. […] The indicated plasmids were co-transfected into HEK293T cells.

cIAP1 [4] = target: T1, cIAP1; experiment: immunoprecipitation of the transfected protein, probed for co-precipitated endogenous cIAP1 (FIG. 6D bottom panel)
Method: as §1

[5] = HEK-293T, FLAG-SIVA2, MG132 last 4 h

T1 sequence (Q13490 whole entry): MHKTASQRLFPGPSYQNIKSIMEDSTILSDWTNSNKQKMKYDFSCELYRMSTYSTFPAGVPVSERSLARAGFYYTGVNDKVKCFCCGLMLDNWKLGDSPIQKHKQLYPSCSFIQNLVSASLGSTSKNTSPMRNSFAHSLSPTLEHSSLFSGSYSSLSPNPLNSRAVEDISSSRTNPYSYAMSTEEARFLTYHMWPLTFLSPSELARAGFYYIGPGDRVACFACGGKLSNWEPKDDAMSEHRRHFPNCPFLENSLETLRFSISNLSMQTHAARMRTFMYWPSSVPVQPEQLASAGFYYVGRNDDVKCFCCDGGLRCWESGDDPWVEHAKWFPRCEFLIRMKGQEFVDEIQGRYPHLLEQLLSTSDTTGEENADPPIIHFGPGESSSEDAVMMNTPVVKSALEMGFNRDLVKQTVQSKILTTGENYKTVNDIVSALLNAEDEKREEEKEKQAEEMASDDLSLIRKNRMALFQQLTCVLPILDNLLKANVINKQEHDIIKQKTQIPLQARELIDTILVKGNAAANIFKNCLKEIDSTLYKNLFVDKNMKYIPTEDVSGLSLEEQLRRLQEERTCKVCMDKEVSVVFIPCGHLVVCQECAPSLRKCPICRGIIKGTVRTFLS

## N.N.[Cl][Pt][Cl] [CIS, cisplatin]
SIVA2 [1]
  SIVA2 levels in activated PBMCs: but not genotoxic stress, increase SIVA2 levels

## [N-]=[N+]=CC(=O)CC[C@H](N)C(=O)O [DON, 6-diazo-5-oxo-L-norleucine]
SIVA2 [2]; HEK-293T, DON 50 μM last 16 h, MG132 last 6 h
  MG132-induced SIVA2 stabilization: does not affect MG132-induced stabilization
SIVA2 [2]; HEK-293T, DON 50 μM last 16 h of 28 h
  TRAF2-induced SIVA2 stabilization: interferes with TRAF2-induced SIVA2 stabilization
SIVA2 [2]; HEK-293T, DON as in FIG. 3D
  NIK-mediated stabilization of wild-type SIVA2: blocks the NIK-mediated stabilization of wild-type SIVA2
  residual stabilization by NIK of the SIVA2 6SA mutant: has no effect on the residual stabilization by NIK of the SIVA2 6SA mutant

## CC[C@@]1(O)C(=O)OCc2c1cc1n(c2=O)Cc2cc3ccccc3nc2-1 [CPT, camptothecin]
SIVA2 [2]; HEK-293T, FLAG-SIVA2, CPT and CD40L for 18 h
  cytokine (CD40)-induced stabilization/enhancement of SIVA2 under genotoxic agent: decreased
SIVA2 [1]
  SIVA2 levels in activated PBMCs: but not genotoxic stress, increase SIVA2 levels

## CC(C)C[C@@H](C=O)NC(=O)[C@H](CC(C)C)NC(=O)[C@H](CC(C)C)NC(=O)OCc1ccccc1 [MG132] (Cbz-Leu-Leu-Leu-aldehyde)
SIVA2 [2]; [5]
  accumulation of polyubiquitinated SIVA2: enhances accumulation of the polyubiquitinated protein
  stabilization of transiently expressed SIVA2: stabilizes transiently expressed SIVA2
SIVA2 [2]; HEK-293T, MG132 25 uM last 6 h of 24 h
  stabilization of SIVA2 (1-58) (SIVA N-terminus): stabilizes SIVA N-terminus
SIVA2 [2]; HEK-293T, MG132 added 18 h after transfection for 6 h
  stabilization of SIVA2 serine mutants: stabilize the SIVA2 serine mutants that cannot be stabilized by NIK
SIVA2 [1]
  SIVA2 levels in activated PBMCs: increase SIVA2 levels

## CC(=O)N[C@H]1[C@@H](OCc2ccccc2)O[C@H](CO)[C@H](O)[C@@H]1O [BADGP, benzyl-α-GalNAc]
SIVA2 [2]; HEK-293T, NIK + SIVA2, 0.7, 1.4, or 2.0 mM BADGP last 16 h of 28 h
  NIK-induced SIVA2 stabilization: blocks NIK-induced SIVA2 stabilization

B1: CD154: CD40 ligand; hCD40L produced by large-scale transfection of HEK-293T cells (protein, UniProt P29965 113-261, looked up)
CD40 ligand, soluble form: MQKGDQNPQIAAHVISEASSKTTSVLQWAEKGYYTMSNNLVTLENGKQLTVKRQGLYYIYAQVTFCSNREASSQAPFIASLCLKSPGRFERILLRAANTHSSAKPCGQQSIHLGGVFELQPGASVFVNVTDPSQVSHGTGFTSFGLLKL
SIVA2 [1]
  SIVA2 expression: extensive enhancement
SIVA1
  SIVA1 expression: did not affect

B2: HIS-SIVA2 (1-58) (other, not shown: small tags and cut ends)
chain: MPKRSCPFADVAPLQLKVRVSQRELSRGVCAERYSQEVFDPSGVASIACSSCVRAVDG
notes: also called SIVA N-terminus
cIAP1 [3]
  binding result: binds

B3: FLAG-SIVA2 (1-58) (other, not shown: small tags and cut ends)
chain: B2 chain
notes: also called SIVA N-terminus
cIAP1 [4]
  binding result: binds

B4: CD70: CD27 ligand; mCD70 produced by large-scale transfection of HEK-293T cells (protein, UniProt O55237 1-195, looked up)
CD70 antigen: MPEEGRPCPWVRWSGTAFQRQWPWLLLVVFITVFCCWFHCSGLLSKQQQRLLEHPEPHTAELQLNLTVPRKDPTLRWGAGPALGRSFTHGPELEEGHLRIHQDGLYRLHIQVTLANCSSPGSTLQHRATLAVGICSPAAHGISLLRGRFGQDCTVALQRLTYLVHGDVLCTNLTLPLLPSRNADETFFGVQWICP
SIVA2 [2]; EcR-293-CD27-SIVA2 cells, ponasterone
  stabilization of inducibly expressed SIVA2: stabilized
SIVA2 [1]
  SIVA2 expression: extensive enhancement
SIVA1
  SIVA1 expression: did not affect

B5: HIS-SIVA2 (other, not shown: small tags and cut ends)
chain: MPKRSCPFADVAPLQLKVRVSQRELSRGVCAERYSQEVFDPSGVASIACSSCVRAVDGKAVCGQCERALCGQCVRTCWGCGSVACTLCGLVDCSDMYEKVLCTSCAMFET
notes: Expressed by transfection in HEK293T cells
cIAP1 [3]
  binding result: binds
